Test system: 556581-035-R-J1-PDC complex spheroid growth
Experiment: Anticancer human tumor 556581-035-R-J1-PDC patient-derived ovarian carcinoma cell line growth inhibition [AhR]
Conditions: for IC50: curve of first compound; for viability, T/C: stronger effect = lower value
Outline: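 Spheroids combined tumor cells with HUVEC endothelial cells and human MSCs as stroma. AhR antagonists were paired with standard or investigational drugs, each dosed in half-log steps down from near clinical Cmax, or from 10 microM where Cmax was unknown.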

[1] = second compound 0.1 µM, first compound 0.0316 µM
[2] = second compound 0.1 µM, first compound 0.1 µM
[3] = second compound 0.1 µM, first compound 0.316 µM
[4] = second compound 0.1 µM, first compound 1 µM
[5] = second compound 0.1 µM, first compound 3.16 µM
[6] = second compound 0.1 µM, first compound 10 µM
[7] = second compound 0.316 µM, first compound 0.0316 µM
[8] = second compound 0.316 µM, first compound 0.1 µM
[9] = second compound 0.316 µM, first compound 0.316 µM
[10] = second compound 0.316 µM, first compound 1 µM
[11] = second compound 0.316 µM, first compound 3.16 µM
[12] = second compound 0.316 µM, first compound 10 µM
[13] = second compound 1 µM, first compound 0.0316 µM
[14] = second compound 1 µM, first compound 0.1 µM
[15] = second compound 1 µM, first compound 0.316 µM
[16] = second compound 1 µM, first compound 1 µM
[17] = second compound 1 µM, first compound 3.16 µM
[18] = second compound 1 µM, first compound 10 µM
[19] = second compound 3.16 µM, first compound 0.0316 µM
[20] = second compound 3.16 µM, first compound 0.1 µM
[21] = second compound 3.16 µM, first compound 0.316 µM
[22] = second compound 3.16 µM, first compound 1 µM
[23] = second compound 3.16 µM, first compound 3.16 µM
[24] = second compound 3.16 µM, first compound 10 µM
[25] = second compound 10 µM, first compound 0.0316 µM
[26] = second compound 10 µM, first compound 0.1 µM
[27] = second compound 10 µM, first compound 0.316 µM
[28] = second compound 10 µM, first compound 1 µM
[29] = second compound 10 µM, first compound 3.16 µM
[30] = second compound 10 µM, first compound 10 µM
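Throughout, for viability, T/C: compound exposure lasted 7 days; 100% = DMSO vehicle control growth.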

CC(C)CC(NC(=O)C(Cc1ccccc1)NC(=O)c1cnccn1)B(O)O (stereo not given) + Cc1ccccc1N=Nc1ccc(NC(=O)c2ccnn2C)c(C)c1
IC50 (second compound 0.1 µM): 5.78 nM
IC50 (second compound 0.316 µM): 5.73 nM
IC50 (second compound 1 µM): 5.9 nM
IC50 (second compound 3.16 µM): 5.64 nM
IC50 (second compound 10 µM): 5.97 nM
viability, T/C (second compound 0.1 µM, first compound 0.000949 µM): 91.6%
viability, T/C (second compound 0.1 µM, first compound 0.003 µM): 117%
viability, T/C (second compound 0.1 µM, first compound 0.00949 µM): 8.91%
viability, T/C (second compound 0.1 µM, first compound 0.03 µM): 0.21%
viability, T/C (second compound 0.1 µM, first compound 0.0949 µM): 0.17%
viability, T/C (second compound 0.1 µM, first compound 0.3 µM): 0.27%
viability, T/C (second compound 0.316 µM, first compound 0.000949 µM): 97.2%
viability, T/C (second compound 0.316 µM, first compound 0.003 µM): 105%
viability, T/C (second compound 0.316 µM, first compound 0.00949 µM): 10.2%
viability, T/C (second compound 0.316 µM, first compound 0.03 µM): 0.34%
viability, T/C (second compound 0.316 µM, first compound 0.0949 µM): 0.22%
viability, T/C (second compound 0.316 µM, first compound 0.3 µM): 0.22%
viability, T/C (second compound 1 µM, first compound 0.000949 µM): 90.2%
viability, T/C (second compound 1 µM, first compound 0.003 µM): 115%
viability, T/C (second compound 1 µM, first compound 0.00949 µM): 13.2%
viability, T/C (second compound 1 µM, first compound 0.03 µM): 0.19%
viability, T/C (second compound 1 µM, first compound 0.0949 µM): 0.16%
viability, T/C (second compound 1 µM, first compound 0.3 µM): 0.26%
viability, T/C (second compound 3.16 µM, first compound 0.000949 µM): 88.2%
viability, T/C (second compound 3.16 µM, first compound 0.003 µM): 100%
viability, T/C (second compound 3.16 µM, first compound 0.00949 µM): 13.6%
viability, T/C (second compound 3.16 µM, first compound 0.03 µM): 0.16%
viability, T/C (second compound 3.16 µM, first compound 0.0949 µM): 0.17%
viability, T/C (second compound 3.16 µM, first compound 0.3 µM): 0.22%
viability, T/C (second compound 10 µM, first compound 0.000949 µM): 82.3%
viability, T/C (second compound 10 µM, first compound 0.003 µM): 89.1%
viability, T/C (second compound 10 µM, first compound 0.00949 µM): 25.9%
viability, T/C (second compound 10 µM, first compound 0.03 µM): 0.35%
viability, T/C (second compound 10 µM, first compound 0.0949 µM): 0.31%
viability, T/C (second compound 10 µM, first compound 0.3 µM): 0.28%

Nc1ccccc1NC(=O)c1ccc(CNC(=O)OCc2cccnc2)cc1 + Cc1ccccc1N=Nc1ccc(NC(=O)c2ccnn2C)c(C)c1
IC50 (second compound 0.1 µM): 2120 nM
IC50 (second compound 0.316 µM): 2310 nM
IC50 (second compound 1 µM): 2790 nM
IC50 (second compound 3.16 µM): 2640 nM
IC50 (second compound 10 µM): 3110 nM
viability, T/C [1]: 101%
viability, T/C [2]: 112%
viability, T/C [3]: 87.2%
viability, T/C [4]: 69.3%
viability, T/C [5]: 40.8%
viability, T/C [6]: 18.9%
viability, T/C [7]: 110%
viability, T/C [8]: 102%
viability, T/C [9]: 93.7%
viability, T/C [10]: 72.2%
viability, T/C [11]: 41.1%
viability, T/C [12]: 19.4%
viability, T/C [13]: 110%
viability, T/C [14]: 106%
viability, T/C [15]: 92.7%
viability, T/C [16]: 70%
viability, T/C [17]: 49%
viability, T/C [18]: 21.5%
viability, T/C [19]: 113%
viability, T/C [20]: 104%
viability, T/C [21]: 88.3%
viability, T/C [22]: 68.5%
viability, T/C [23]: 47.3%
viability, T/C [24]: 20.6%
viability, T/C [25]: 99.5%
viability, T/C [26]: 95.9%
viability, T/C [27]: 92.9%
viability, T/C [28]: 68.2%
viability, T/C [29]: 52.2%
viability, T/C [30]: 32.8%

O=C(C=Cc1cccc(S(=O)(=O)Nc2ccccc2)c1)NO + Cc1ccccc1N=Nc1ccc(NC(=O)c2ccnn2C)c(C)c1
IC50 (second compound 0.1 µM): 1200 nM
IC50 (second compound 0.316 µM): 1340 nM
IC50 (second compound 1 µM): 1280 nM
IC50 (second compound 3.16 µM): 1130 nM
IC50 (second compound 10 µM): 1540 nM
viability, T/C [1]: 99.8%
viability, T/C [2]: 113%
viability, T/C [3]: 87%
viability, T/C [4]: 50.8%
viability, T/C [5]: 28.4%
viability, T/C [6]: 4.1%
viability, T/C [7]: 106%
viability, T/C [8]: 92.7%
viability, T/C [9]: 91.9%
viability, T/C [10]: 57.1%
viability, T/C [11]: 24.9%
viability, T/C [12]: 4.53%
viability, T/C [13]: 93.9%
viability, T/C [14]: 107%
viability, T/C [15]: 91.7%
viability, T/C [16]: 53.2%
viability, T/C [17]: 27.7%
viability, T/C [18]: 6.45%
viability, T/C [19]: 96.4%
viability, T/C [20]: 90.5%
viability, T/C [21]: 77.7%
viability, T/C [22]: 51.4%
viability, T/C [23]: 27.1%
viability, T/C [24]: 5.72%
viability, T/C [25]: 86.2%
viability, T/C [26]: 83.2%
viability, T/C [27]: 79.8%
viability, T/C [28]: 61%
viability, T/C [29]: 30.9%
viability, T/C [30]: 7.96%

O=C(c1cc(Cc2n[nH]c(=O)c3ccccc23)ccc1F)N1CCN(C(=O)C2CC2)CC1 + Cc1ccccc1N=Nc1ccc(NC(=O)c2ccnn2C)c(C)c1
IC50 (second compound 0.1 µM): > 10000 nM
IC50 (second compound 0.316 µM): > 10000 nM
IC50 (second compound 1 µM): > 10000 nM
IC50 (second compound 3.16 µM): > 10000 nM
IC50 (second compound 10 µM): > 10000 nM
viability, T/C [1]: 100%
viability, T/C [2]: 92.5%
viability, T/C [3]: 89.2%
viability, T/C [4]: 95%
viability, T/C [5]: 78.3%
viability, T/C [6]: 76.1%
viability, T/C [7]: 103%
viability, T/C [8]: 88.2%
viability, T/C [9]: 87.8%
viability, T/C [10]: 97.3%
viability, T/C [11]: 87.8%
viability, T/C [12]: 72.3%
viability, T/C [13]: 92.7%
viability, T/C [14]: 96.8%
viability, T/C [15]: 93.3%
viability, T/C [16]: 99.5%
viability, T/C [17]: 93.3%
viability, T/C [18]: 76.6%
viability, T/C [19]: 89%
viability, T/C [20]: 93.7%
viability, T/C [21]: 84.2%
viability, T/C [22]: 80.9%
viability, T/C [23]: 82.4%
viability, T/C [24]: 77.5%
viability, T/C [25]: 78.2%
viability, T/C [26]: 82.3%
viability, T/C [27]: 82.5%
viability, T/C [28]: 82.6%
viability, T/C [29]: 82.4%
viability, T/C [30]: 74.8%

— PubChem BioAssay AID1918999 (Molecular Pharmacology Branch, DTP, NCI, 2023)
